Holding throughout (assay type): biochemical
One experiment has as its target T1, UGT 1A10 (Homo sapiens, UniProt Q9HAW8).
T1 construct: purchased BD Gentest; host or cells: insect cells (microsomes)
T1 sequence (Q9HAW8 26-530): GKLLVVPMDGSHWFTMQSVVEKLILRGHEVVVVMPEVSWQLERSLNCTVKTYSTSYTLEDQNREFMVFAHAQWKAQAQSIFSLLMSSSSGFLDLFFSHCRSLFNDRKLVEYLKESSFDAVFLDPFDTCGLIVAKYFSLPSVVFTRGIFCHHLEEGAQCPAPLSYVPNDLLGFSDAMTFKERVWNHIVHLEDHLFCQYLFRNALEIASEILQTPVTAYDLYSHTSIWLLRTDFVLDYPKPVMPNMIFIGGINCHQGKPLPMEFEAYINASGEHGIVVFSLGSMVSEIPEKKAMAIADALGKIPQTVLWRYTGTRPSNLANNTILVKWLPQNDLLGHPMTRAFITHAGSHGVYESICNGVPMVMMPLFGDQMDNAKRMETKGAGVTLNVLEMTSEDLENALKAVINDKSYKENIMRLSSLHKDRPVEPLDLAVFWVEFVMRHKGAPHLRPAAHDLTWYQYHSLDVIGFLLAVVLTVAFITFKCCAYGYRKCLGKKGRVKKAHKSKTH
The experiment is described as follows: UGT activity: utilization of substrate by recombinant UGT 1A10 Supersomes. The settings on record: 2 hour incubation at 37° C., plus vs minus UDPGA, background corrected. As for the experimental part: (§1) The invention includes a method of determining activity of the uridine 5′-diphospho-glucuronosyltransferase (UDP-glucuronosyltransferase, or UGT) family enzymes in vitro. Briefly, UGT enzymes from overexpressed insect microsomes (Supersomes™, BD Gentest™) or animal tissue microsomes (Xenotech, BD Gentest™) were incubated with a cyanobenzothiazole substrate of the invention and the cofactor UDP-glucuronic acid (UDPGA) at 37° C. in buffer at physiological pH containing MgCl2 and alamethicin (typically, 50 mM TES, pH 7.5, 8 mM MgCl2, 4 mM UDPGA (Sigma) and 25 μg/mL alamethicin (Sigma)). Following the UGT enzyme reaction, an equal volume of P450-Glo Luciferin Detection Reagent (Promega) containing 15-30 mM D-cysteine-HCl.H2O (Sigma) was added and the plate was mixed and incubated at room temperature, typically for 20-30 minutes. […]
(§2) During this incubation, the cysteine reacts with the cyanobenzathiozole substrate to yield a D-luciferin derivative. […] Therefore, activity of the UGT enzyme can be measured by analyzing the difference (lower or no output) in relative light units (RLU) of a sample in which glucuronidation occurs compared to a sample that was run under the same conditions with no added UDPGA cofactor. […]
(§3) Reactions were assembled in a white 96-well plate. […] After the incubation was completed, the plate was read on a Veritas™ luminometer (Turner BioSystems, Inc.; Sunnyvale, Calif.). […]

The next experiment addresses T2, UGT 1A7 (Homo sapiens, UniProt Q9HAW7).
T2 construct: purchased BD Gentest; host or cells: insect cells (microsomes)
T2 sequence (Q9HAW7 26-530): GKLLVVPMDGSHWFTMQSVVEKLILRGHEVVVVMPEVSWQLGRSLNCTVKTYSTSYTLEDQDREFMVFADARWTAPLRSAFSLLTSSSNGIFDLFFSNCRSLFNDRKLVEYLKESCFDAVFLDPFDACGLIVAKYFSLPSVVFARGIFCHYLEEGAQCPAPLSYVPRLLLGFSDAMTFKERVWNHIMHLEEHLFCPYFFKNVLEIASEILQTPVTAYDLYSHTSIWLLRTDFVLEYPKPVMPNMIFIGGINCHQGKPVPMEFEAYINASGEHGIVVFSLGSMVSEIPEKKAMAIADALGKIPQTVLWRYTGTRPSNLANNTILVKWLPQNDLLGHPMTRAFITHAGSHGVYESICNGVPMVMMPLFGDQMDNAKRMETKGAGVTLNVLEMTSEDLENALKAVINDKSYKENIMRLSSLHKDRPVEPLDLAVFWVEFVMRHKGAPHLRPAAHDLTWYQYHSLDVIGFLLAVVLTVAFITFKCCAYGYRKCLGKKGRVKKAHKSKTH
Put plainly: UGT activity: utilization of substrate by recombinant UGT 1A7 Supersomes. Conditions: 2 hour incubation at 37° C., plus vs minus UDPGA. As to the method:
as §1, §2, §3

A further experiment has as its target T3, UGT 1A6 (Homo sapiens, UniProt P19224).
T3 construct: purchased BD Gentest; host or cells: insect cells (microsomes)
T3 sequence (P19224 27-532): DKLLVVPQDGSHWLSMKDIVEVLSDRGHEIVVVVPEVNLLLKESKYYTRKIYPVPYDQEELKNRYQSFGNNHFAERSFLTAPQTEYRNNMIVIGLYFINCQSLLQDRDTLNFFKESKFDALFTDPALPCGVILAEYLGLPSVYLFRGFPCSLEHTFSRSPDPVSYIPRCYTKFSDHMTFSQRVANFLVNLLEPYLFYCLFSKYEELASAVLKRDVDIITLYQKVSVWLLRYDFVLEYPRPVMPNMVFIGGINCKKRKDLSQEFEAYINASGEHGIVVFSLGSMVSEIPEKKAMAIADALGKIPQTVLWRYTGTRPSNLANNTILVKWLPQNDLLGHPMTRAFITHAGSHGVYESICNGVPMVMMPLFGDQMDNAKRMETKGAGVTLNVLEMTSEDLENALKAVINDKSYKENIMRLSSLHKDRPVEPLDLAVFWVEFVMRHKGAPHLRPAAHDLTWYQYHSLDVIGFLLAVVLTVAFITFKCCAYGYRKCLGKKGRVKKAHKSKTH
Put plainly: UGT activity: utilization of substrate by recombinant UGT 1A6 Supersomes. Conditions: 2 hour incubation at 37° C., plus vs minus UDPGA. As for the experimental part:
as §1, §2, §3

Molecules are shown by their SMILES.

With `Cc1cc(O)cc2sc(C3=NC(C(=O)O)CS3)nc12` (stereo not drawn) [compound 3478], the “% utilization by UGT 1A10” value at UGT 1A10 is given as no more than 15%. Moreover, on UGT 1A7, the “utilization by UGT 1A7 (in words)” value is “only UGT 1A6 was able to utilize compound 3478 to any appreciable extent”. For the same molecule, the “utilization by UGT 1A6 (in words)” value on UGT 1A6 is “only UGT 1A6 was able to utilize compound 3478 to any appreciable extent”.

Take `Cc1cc(O)cc2sc(C#N)nc12` [compound 3138]: the “% utilization by UGT 1A10” value at UGT 1A10 is recorded as “over 50%”. Besides, the “utilization by UGT 1A7 (in words)” value on UGT 1A7 is on record as “detectable levels of utilization above background”. For the same molecule, the “utilization by UGT 1A6 (in words)” value on UGT 1A6 is “detectable levels of utilization above background”.

The record behind these values is patent publication US8551721B2, “Bioluminescent detection of cyanohydroxy benzothiazole compounds” (Promega Corporation, priority 2008, dated 2013).
